One assay deals with T1, Mcl-1/Bim interaction, recombinant human Mcl-1 (171-327) (Homo sapiens, UniProt Q07820).
T1 construct: made in house
T1 sequence (Q07820 171-327): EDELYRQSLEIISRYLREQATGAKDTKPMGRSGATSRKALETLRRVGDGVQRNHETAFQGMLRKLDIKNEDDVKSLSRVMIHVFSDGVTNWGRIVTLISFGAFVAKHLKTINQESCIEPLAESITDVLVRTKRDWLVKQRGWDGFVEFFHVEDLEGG
The experiment in a line: Cell free Mcl-1: Bim Affinity Assay (Mcl-1 HTRF). The class given is binding. As to conditions: TR-FRET, 0.1 nM Mcl-1 (171-327), 0.05 nM biotin-Bim (51-76). A digest of the protocol:
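Displacement of biotinylated Bim 51-76 peptide is followed by TR-FRET. Incubation runs overnight. Duplicate points are fitted with a four-parameter sigmoid to yield IC50.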
Take `CC[C@@H]1CC/C=C/[C@@H](OC)[C@@H]2CC[C@H]2CN2C[C@@]3(CCCc4cc(Cl)ccc43)COc3ccc(cc32)C(=O)NS1(=O)=O` [Example 1093, (1S,3′R,6′R,7′R,8′E,12′R)-6-chloro-7′-methoxy-12′-ethyl-3,4-dihydro-2H,15′H-spiro [naphthalene-1,22′-[20]oxa[13]thia[1,14]diazatetracyclo[14.7.2.0^3,6.0^19,24]pentacosa [8,16,18,24]tetraen]-15′-one 13′,13′-dioxide]: the IC50 worked out at 2.54 nM. On the same count and under the same terms, next, `CCN1CC/C=C/[C@H](OC)[C@@H]2CC[C@H]2CN2C[C@@]3(CCCc4cc(Cl)ccc43)COc3ccc(cc32)C(=O)NS1(=O)=O` [Example 45]: 2.3 nM; `CC[C@@H]1CC/C=C/[C@H](OCC(=O)NC(C)C)[C@@H]2CC[C@H]2CN2C[C@@]3(CCCc4cc(Cl)ccc43)COc3ccc(cc32)C(=O)NS1(=O)=O` [Example 422, 2-(((1S,3′R,6′R,7′S,8′E,12′R)-6-chloro-12′-ethyl-13′,13′-dioxido-15′-oxo-3,4-dihydro-2H-spiro[naphthalene-1,22′-[20]oxa[13]thia[1,14]diazatetracyclo[14.7.2.0^3,6.0^19,24]pentacosa [8,16,18,24]tetraen]-7′-yl)oxy)-N-(1-methylethyl)acetamide]: 0.865 nM. As to `COCCOC[C@@H]1CC/C=C/[C@H](O)[C@@H]2CC[C@H]2CN2C[C@@]3(CCCc4cc(Cl)ccc43)COc3ccc(cc32)C(=O)NS1(=O)=O` (single isomer, unassigned) [Example 448], the IC50 came to 0.951 nM.

Still in this assay, the particulars now being: cell free Mcl-1:Bim TR-FRET, recombinant human Mcl-1 (171-327).
With `CC(=O)N[C@@H]1CCCCCS(=O)(=O)NC(=O)c2ccc3c(c2)N(C[C@@H]2CC[C@H]21)C[C@@]1(CCCc2cc(Cl)ccc21)CO3` (single isomer, unassigned) [Example 935, N-((1S,3′R,6′R,7′R)-6-chloro-13′,13′-dioxido-15′-oxo-3,4-dihydro-2H-spiro[naphthalene-1,22′-[20]oxa[13]thia[1,14]diazatetracyclo[14.7.2.0^3,6.0^19,24]pentacosa [16,18,24]trien]-7′-yl)acetamide or N-((1S,3′R,6′R,7′S)-6-chloro-13′,13′-dioxido-15′-oxo-3,4-dihydro-2H-spiro[naphthalene-1,22′-[20]oxa[13]thia[1,14]diazatetracyclo[14.7.2.0^3,6.0^19,24]pentacosa [16,18,24]trien]-7′-yl)acetamide], the IC50 worked out at 2.07 nM.

For the compound `C[C@@H]1CC[C@@H]2C[C@H]2[C@H](O)[C@@H]2CC[C@H]2CN2C[C@@]3(CCCc4cc(Cl)ccc43)COc3ccc(cc32)C(=O)NS1(=O)=O` (single isomer, unassigned) [Example 951], the IC50 is 13.1 nM.

In the case of `CC(=O)N1CC[C@H](O)[C@@H]2CC[C@H]2CN2C[C@@]3(CCCc4cc(Cl)ccc43)COc3ccc(cc32)C(=O)NS(=O)(=O)CC1` (single isomer, unassigned) [Example 778], the IC50 stood at 6.89 nM. The same measure, in the same setting: for `O=C1CC[C@@H]2CC[C@H]2CN2C[C@@]3(CCCc4cc(Cl)ccc43)COc3ccc(cc32)C(=O)NS(=O)(=O)CCN1` [Example 945, (1S,3′R,6′S)-6-chloro-3,4-dihydro-2H,9′H,15′H-spiro[naphthalene-1,22′-[20]oxa[13]thia[1,10,14]triazatetracyclo[14.7.2.0^3,6.0^19,24]pentacosa[16,18,24]triene]-9′,15′-dione 13′,13′-dioxide] the value was 12 nM; for `O=C1NS(=O)(=O)CCCC[C@H](O)C[C@@H]2CC[C@H]2CN2C[C@@]3(CCCc4cc(Cl)ccc43)COc3ccc1cc32` (single isomer, unassigned) [Example 867, (1S,3′R,6′S,8′S)-6-chloro-8′-hydroxy-3,4-dihydro-2H,15′H-spiro[naphthalene-1,22′-[20]oxa[13]thia[1,14]diazatetracyclo[14.7.2.0^3,6.0^19,24]pentacosa[16,18,24]trien]-15′-one 13′,13′-dioxide or (1S,3′R,6′S,8′R)-6-chloro-8′-hydroxy-3,4-dihydro-2H,15′H-spiro[naphthalene-1,22′-[20]oxa[13]thia[1,14]diazatetracyclo[14.7.2.0^3,6.0^19,24]pentacosa[16,18,24]trien]-15′-one 13′,13′-dioxide], 6.81 nM; for `O=C1NS(=O)(=O)CCCC/C=C/[C@@H]2CC[C@H]2CN2C[C@@]3(CCCc4cc(Cl)ccc43)COc3ccc1cc32` [Example 858, (1S,3′R,6′S, 7′E)-6-chloro-3,4-dihydro-2H,15′H-spiro[naphthalene-1,22′-[20]oxa[13]thia[1,14]diazatetracyclo[14.7.2.0^3,6.0^19,24]pentacosa [7,16,18,24]tetraen]-15′-one 13′,13′-dioxide], 27.8 nM. Same read-out and setting: next, `CN(C(=O)C1CC1)C1CCCCCS(=O)(=O)NC(=O)c2ccc3c(c2)N(CC2CCC21)CC1(CCCc2cc(Cl)ccc21)CO3` (single isomer, unassigned) [Example 942]: 36.4 nM. Same read-out and setting: next, `O=C1NS(=O)(=O)CCCCC[C@@H](NO)[C@@H]2CC[C@H]2CN2C[C@@]3(CCCc4cc(Cl)ccc43)COc3ccc1cc32` (single isomer, unassigned) [Example 933, (1S,3′R,6′R,7′R)-6-chloro-7′-(hydroxyamino)-3,4-dihydro-2H,15′H-spiro[naphthalene-1,22′-[20]oxa[13]thia[1,14]diazatetracyclo[14.7.2.0^3,6.0^19,24]pentacosa [16,18,24]trien]-15′-one 13′,13′-dioxide or (1S,3′R,6′R,7′S)-6-chloro-7′-(hydroxyamino)-3,4-dihydro-2H,15′H-spiro[naphthalene-1,22′-[20]oxa[13]thia[1,14]diazatetracyclo[14.7.2.0^3,6.0^19,24]pentacosa [16,18,24]trien]-15′-one 13′,13′-dioxide]: 15 nM; “(3R,6R,7R,11E,22S)-6′-chloro-7-hydroxy-3′,4′-dihydro-2′H,15H-spiro[9,20-dioxa-13-thia-1,14-diazatetracyclo[14.7.2.0^3,6.0^19,24]pentacosa-11,16,18,24-tetraene-22,1′-naphthalen]-15-one 13,13-dioxide or (3R,6R,7S,11E,22S)-6′-chloro-7-hydroxy-3′,4′-dihydro-2′H,15H-spiro[9,20-dioxa-13-thia-1,14-diazatetracyclo[14.7.2.0^3,6.0^19,24]pentacosa-11,16,18,24-tetraene-22,1′-naphthalen]-15-one 13,13-dioxide [Example 863]”: 5.38 nM. With `CC[C@H]1CC/C=C/[C@H](O)[C@@H]2CC[C@H]2CN2C[C@@]3(CCc4cc(Cl)ccc43)COc3ccc(cc32)C(=O)NS1(=O)=O` (single isomer, unassigned) [Example 700], the IC50 was 27.7 nM. `O=C1C[C@H](O)[C@@H]2CC[C@H]2CN2C[C@@]3(CCCc4cc(Cl)ccc43)COc3ccc(cc32)C(=O)NS(=O)(=O)CCN1` (single isomer, unassigned) [Example 681]: the IC50 was found to be 29 nM.

Take `O=C1NS(=O)(=O)C[C@H](CO)/C=C/C[C@H](O)[C@@H]2CC[C@H]2CN2C[C@@]3(CCCc4cc(Cl)ccc43)COc3ccc1cc32` (single isomer, unassigned) [Example 706]: the 50% inhibitory concentration (IC50) is 4.51 nM.

A word on the IC50: it is the point on the concentration scale where inhibition reaches its midpoint.
